Where no end group is shown, it is not given here.
Experiments:
[1] = system: DNA packaged in HSV-1 virion; experiment: SAXS of HSV-1 virions with added compound; settings: HSV-1 virions in TM-buffer, 37°C
Procedure: In the third SAXS screening step, we added the selected compounds to whole virions (enveloped capsids) in TM-buffer to verify that the compounds penetrate the lipid envelope, tegument protein layer, and capsid wall. […] Both C-capsids and virions have a well-resolved X-ray scattering peak corresponding to diffraction from packaged DNA[60] used for ds determination. […] During HSV-1 replication, it takes approximately 1 h for HSV-1 to adsorb to a cell surface and an additional 2–4 h for viral capsids to be transported, once fused with a cell membrane, to a cell nucleus where DNA is ejected from capsids. [HSV-1 replication dynamics in cell culture were verified separately and were also verified elsewhere[41]]. […] Compound concentrations in this SAXS measurements of virions were the same as in the SAXS measurements of C-capsids above, with virion concentration of 10^13 pfu/mL.
Vero cells were infected with an HSV-1 KOS strain overnight (21 h at 37°C) at a MOI of 0.1 PFU per cell. […] The concentrations of the compounds added to induce DNA condensation were calculated as described above.
All SAXS measurements of viral capsids were conducted at a concentration of 10^13 viral particles per mL (the highest technically achievable capsid concentration). […] Samples were measured in the temperature range of 15–37°C, and the sample temperature was controlled with a Peltier device with ± 0.5°C accuracy. […]

NPC = experiment: Nuclear import assay (GST-NLS-EGFP) in isolated rat liver nuclei; type: biochemical; settings: cytosol and ATP regeneration system, 37 °C
Procedure: This was verified with a fluorescently labeled nuclear localization signal (NLS), added to purified rat liver nuclei incubated with cytosolic extracts (as a source of soluble import factors) supplemented with an ATP regeneration system, see Supporting Materials for experimental description and S4A Fig. These controls were also reproduced with a digitonin-permeabilized cell assay, which accurately recapitulates capsid-nucleus binding and nuclear import in living cells; see Supporting Materials and data shown in S4B Fig. In agreement with observations in the isolated nuclei system (Fig 3B), we also confirmed via a digitonin-permeabilized cell assay that none of the three compounds interfered with capsid-NPC binding in cells. Attachment of GFP-capsids to nuclei was visualized with SR-SIM (S4C Fig). The addition of WGA prevented capsid binding, showing capsid-NPC binding specificity (S4C Fig).
Rat liver cell nuclei were incubated with GST-NLS-EGFP at 37 °C for 40 min in CBB buffer containing: (i) rat liver cell cytosol, (ii) 1 mg/mL BSA, and (iii) ATP regeneration system. The complete binding mixture was loaded onto coverslips and processed for fluorescence imaging as described above. When indicated, nuclei were preincubated with the polyvalent cationic agents at the concentrations described above for 2 h before performing import assays. […]

NCCCN(CCCN)CCCCN(CCCN)CCCN [DAB-Am-4]
DNA-DNA interaxial spacing ds [1]: below 31 Å | nuclear import of GST-NLS-GFP protein (NPC): not blocked

RRRRR [Arg^5+]
DNA-DNA interaxial spacing ds [1]: below 31 Å | nuclear import of GST-NLS-GFP protein (NPC): not blocked
